Reference: patent US4081441A, “Antibacterial agents” (priority 1977, dated 1978)
Like-named read-outs stand apart in the source and are kept apart here.

Columns and labels:
[1] = Mouse blood (plasma) antibiotic levels after single intramuscular dose; assay type: in vivo; conditions: im, 40 mg/kg, mice, 40 mg./kg. i.m.; for concentration at 0.25 h: 15 min.; for concentration at 0.5 h: 30 min.; for concentration at 1 h: 60 min.; for concentration at 1.5 h: 90 min.
Description: Plasma antibiotic levels from mice administered a single intramuscular dose of 40 mg./kg. of BL-[…] or carbenicillin are shown in the following table.

Cl. acidiurici = assay: M.I.C. against anaerobic bacteria, Cl. acidiurici; assay type: cell-based; conditions: strain A9560
Cl. perfringens = assay: microbe, parasite or virus in culture; assay type: cell-based; conditions: Clostridium perfringens
Cl. difficile = assay: M.I.C. against anaerobic bacteria, Cl. difficile; assay type: cell-based; conditions: Clostridioides difficile
Cl. ramosum = assay: M.I.C. against anaerobic bacteria, Cl. ramosum; assay type: cell-based; conditions: Thomasclavelia ramosa
Pseudomonas aeruginosa [2] = assay: animal or person; conditions: in Mus musculus, im
Pseudomonas aeruginosa [3] = assay: Minimum Bactericidal Concentration, inoculum 10^5 cells/ml., at least 99.9% kill; assay type: cell-based
Source text: The effect of increased inoculum size on the bactericidal activity of BL-P1908 was investigated by a second test in which an inoculum size of 10^5 cells/ml. was used and the M.B.C. was defined as the lowest concentration of antibiotics in mcg./ml. needed to kill at least 99.9% of viable Pseudomonas cells.

Bacteroides fragilis = assay: M.I.C. against anaerobic bacteria, Bacteroides fragilis; assay type: cell-based
Cl. cylindrosporum = assay: M.I.C. against anaerobic bacteria, Cl. cylindrosporum; assay type: cell-based; conditions: strain A9562
Cl. septicum = assay: M.I.C. against anaerobic bacteria, Cl. septicum; assay type: cell-based; conditions: Clostridium septicum; strain A21869
Pseudomonas aeruginosa [4] = assay: In vitro bactericidal synergism, broth dilution checkerboard; assay type: cell-based; conditions: for MBC: Pseudomonas aeruginosa, drug alone, read-out: Minimum Bactericidal Concentration
Pseudomonas aeruginosa [5] = assay: Minimum Bactericidal Concentration, inoculum 10^4 cells/ml., at least 99% kill; assay type: cell-based
Description: The bactericidal in vitro activity of sodium D(-)-6-(α-(1,2,4-triazine-3,5-dione-6-carboxamido)-4-hydroxyphenylacetamido)penicillanate (BL-P1908) against several strains of Pseudomonas aeruginosa was determined under two sets of conditions. In one test the Minimum Bactericidal Concentrations (M.B.C.) were determined using an inoculum size of 10^4 cells/ml. and the M.B.C. was defined as the lowest concentration of antibiotic in mcg./ml. needed to kill at least 99% of the viable Pseudomonas cells.

Pseudomonas aeruginosa [6] = assay: Minimum Inhibitory Concentration, agar dilution, overnight incubation at 37° C.; assay type: cell-based; conditions: Pseudomonas aeruginosa
Source text: A carbenicillin sample was also run for comparative purposes.

[7] = Ave. of Tests 1 and 2, read-out: Blood Level
[8] = Test 1 (Ave. of 6 mice tested), read-out: Blood Level
[9] = Test 2 (Ave. of 8 mice tested), read-out: Blood Level

CC1(C)S[C@@H]2[C@H](NC(=O)[C@H](NC(=O)c3n[nH]c(=O)[nH]c3=O)c3ccc(O)cc3)C(=O)N2[C@H]1C(=O)O [BL-P1908, sodium D(-)-6-(α-(1,2,4-triazine-3,5-dione-6-carboxamido)-4-hydroxyphenylacetamido)penicillanate]
15100 ng/mL: concentration at 0.5 h [1, 9]
2 µg/mL: MIC (Cl. difficile; strain A21675) | MIC (Cl. ramosum; strain A21970) | MIC (Bacteroides fragilis; strain A20926) | MBC (Pseudomonas aeruginosa [5]; strain 9926) | MBC (Pseudomonas aeruginosa [5]; strain 20126) | MBC (Pseudomonas aeruginosa [5]; strain 20128) | MBC (Pseudomonas aeruginosa [5]; strain 20227) | MBC (Pseudomonas aeruginosa [5]; strain 20574) | MBC (Pseudomonas aeruginosa [5]; strain 20616) | MBC (Pseudomonas aeruginosa [5]; strain 20726) | MBC (Pseudomonas aeruginosa [5]; strain 21336) | MIC (Pseudomonas aeruginosa [6]; strain A9502) | MIC (Pseudomonas aeruginosa [6]; strain A9923) | MIC (Pseudomonas aeruginosa [6]; strain A9924) | MIC (Pseudomonas aeruginosa [6]; strain A9930) | MIC (Pseudomonas aeruginosa [6]; strain A15150) | MIC (Pseudomonas aeruginosa [6]; strain A15195) | MIC (Pseudomonas aeruginosa [6]; strain A15196) | MIC (Pseudomonas aeruginosa [6]; strain A20125) | MIC (Pseudomonas aeruginosa [6]; strain A20546) | MIC (Pseudomonas aeruginosa [6]; strain A20602) | MIC (Pseudomonas aeruginosa [6]; strain A21336)
250 µg/mL: MBC (Pseudomonas aeruginosa [3]; strain 9926) | MBC (Pseudomonas aeruginosa [3]; strain 20228)
19400 ng/mL: concentration at 0.5 h [1, 8]
< 2900 ng/mL: concentration at 1.5 h [1, 7]
2.5 mg/kg: ED50 (Pseudomonas aeruginosa [2]; read-out: PD50 /treatment, P. aeruginosa A9843A, challenge 2 × 10^4, i.m., at 0 and 2 hours)
8 µg/mL: MIC (Bacteroides fragilis; strain A20933) | MIC (Bacteroides fragilis; strain A22053) | MBC (Pseudomonas aeruginosa [5]; strain 20228) | MIC (Pseudomonas aeruginosa [6]; strain A15151)
5.4 mg/kg: ED50 (Pseudomonas aeruginosa [2]; read-out: PD50 /treatment, P. aeruginosa A20599, challenge 3 × 10^4, i.m., at 0 and 2 hours)
4 µg/mL: MIC (Cl. difficile; strain A21972) | MBC (Pseudomonas aeruginosa [3]; strain 20227) | MIC (Bacteroides fragilis; strain A20934) | MIC (Bacteroides fragilis; strain A21875) | MBC (Pseudomonas aeruginosa [5]; strain 20641) | MIC (Pseudomonas aeruginosa [6]; strain A15194) | MIC (Pseudomonas aeruginosa [6]; strain A20557) | MIC (Pseudomonas aeruginosa [6]; strain A20717)
resistant: strain sensitivity (Pseudomonas aeruginosa [4]; strain A20480) | strain sensitivity (Pseudomonas aeruginosa [4]; strain A20620)
7500 ng/mL: concentration at 1 h [1, 8]
26700 ng/mL: concentration at 0.25 h [1, 7]
28400 ng/mL: concentration at 0.25 h [1, 9]
< 3900 ng/mL: concentration at 1.5 h [1, 8]
16 µg/mL: MBC (Pseudomonas aeruginosa [3]; strain 20128) | MIC (Bacteroides fragilis; strain A20930) | MIC (Bacteroides fragilis; strain A21870) | MIC (Bacteroides fragilis; strain A21871) | MIC (Bacteroides fragilis; strain A21872) | MIC (Bacteroides fragilis; strain A27020) | MIC (Cl. cylindrosporum) | MBC (Pseudomonas aeruginosa [5]; strain 20557)
5300 ng/mL: concentration at 1 h [1, 7]
100 µg/mL: MBC (Pseudomonas aeruginosa [4]; strain A21510)
4.8 mg/kg: ED50 (Pseudomonas aeruginosa [2]; read-out: PD50 /treatment, P. aeruginosa A9843A, challenge 1 × 10^4, i.m., at 0 and 2 hours)
63 µg/mL: MBC (Pseudomonas aeruginosa [5]; strain 9843A) | MBC (Pseudomonas aeruginosa [5]; strain 20717)
0.5 µg/mL: MIC (Pseudomonas aeruginosa [6]; strain A20126) | MIC (Pseudomonas aeruginosa [6]; strain A20227) | MIC (Pseudomonas aeruginosa [6]; strain A20574) | MIC (Pseudomonas aeruginosa [6]; strain A20641)
32 µg/mL: MBC (Pseudomonas aeruginosa [3]; strain 20126)
24900 ng/mL: concentration at 0.25 h [1, 8]
sensitive: strain sensitivity (Pseudomonas aeruginosa [4]; strain A9843A) | strain sensitivity (Pseudomonas aeruginosa [4]; strain A20552) | strain sensitivity (Pseudomonas aeruginosa [4]; strain A21509) | strain sensitivity (Pseudomonas aeruginosa [4]; strain A21510)
1000 µg/mL: MBC (Pseudomonas aeruginosa [3]; strain 20557) | MBC (Pseudomonas aeruginosa [3]; strain 20602) | MBC (Pseudomonas aeruginosa [3]; strain 20616) | MBC (Pseudomonas aeruginosa [3]; strain 20641) | MBC (Pseudomonas aeruginosa [3]; strain 20726) | MBC (Pseudomonas aeruginosa [3]; strain 21336)
9.6 mg/kg: ED50 (Pseudomonas aeruginosa [2]; read-out: PD50 /treatment, P. aeruginosa A20599, challenge 6 × 10^4, i.m., at 0 and 2 hours)
500 µg/mL: MBC (Pseudomonas aeruginosa [3]; strain 9843A) | MBC (Pseudomonas aeruginosa [3]; strain 9910) | MBC (Pseudomonas aeruginosa [3]; strain 20546) | MBC (Pseudomonas aeruginosa [4]; strain A20552) | MBC (Pseudomonas aeruginosa [4]; strain A21509)
0.13 µg/mL: MIC (Cl. perfringens; strain A21873) | MIC (Cl. perfringens; strain A21874) | MIC (Cl. perfringens; strain A21907)
> 1000 µg/mL: MBC (Pseudomonas aeruginosa [3]; strain 20574) | MBC (Pseudomonas aeruginosa [3]; strain 20717)
1 µg/mL: MIC (Cl. acidiurici) | MIC (Bacteroides fragilis; strain A20920) | MIC (Bacteroides fragilis; strain A20927-1) | MIC (Bacteroides fragilis; strain A20935) | MIC (Cl. septicum) | MBC (Pseudomonas aeruginosa [5]; strain 9910) | MBC (Pseudomonas aeruginosa [5]; strain 20546) | MIC (Pseudomonas aeruginosa [6]; strain A9827) | MIC (Pseudomonas aeruginosa [6]; strain A9910) | MIC (Pseudomonas aeruginosa [6]; strain A9925) | MIC (Pseudomonas aeruginosa [6]; strain A9926) | MIC (Pseudomonas aeruginosa [6]; strain A9931) | MIC (Pseudomonas aeruginosa [6]; strain A20127) | MIC (Pseudomonas aeruginosa [6]; strain A20128) | MIC (Pseudomonas aeruginosa [6]; strain A20129) | MIC (Pseudomonas aeruginosa [6]; strain A20130) | MIC (Pseudomonas aeruginosa [6]; strain A20228) | MIC (Pseudomonas aeruginosa [6]; strain A20616) | MIC (Pseudomonas aeruginosa [6]; strain A20726)
11 mg/kg: ED50 (Pseudomonas aeruginosa [2]; read-out: PD50 /treatment, P. aeruginosa A9843A, challenge 3 × 10^4, i.m., at 0 and 2 hours)
17300 ng/mL: concentration at 0.5 h [1, 7]
0.25 µg/mL: MIC (Cl. ramosum; strain A21883)
< 1800 ng/mL: concentration at 1.5 h [1, 9]
3000 ng/mL: concentration at 1 h [1, 9]
